Test in all cases: growth of human tumour cells (NCI), 48 h
Test [1] has as its system ACHN.
Test [2] relates to SF-268.
Test [3] has as its system MDA-N.
Test [4] deals with A549.
Test [5] deals with UACC-62.
Test [6] concerns HCT-116.
In test [7] the test system is 786-0.
Test [8] relates to NCI-H23.
The subject of test [9] is PC-3.
Test [10] has as its system SK-MEL-5.
Test [11] has as its system Malme-3M.
Test [12] concerns MDA-MB-435.
In test [13] the test system is HOP-62.
In test [14] the test system is LOX IMVI.
Test [15] concerns OVCAR-3.
Test [16] concerns OVCAR-8.
Test [17] has as its system SW-620.
The subject of test [18] is BT-549.
The test system of test [19] is HCT-15.
For test [20], the system named is HCC 2998.

Results on 11 compounds are retold here after ChEMBL document CHEMBL1201862, “PubChem BioAssay data set” (2004).

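The compound was tested at five concentrations on cells cultured in 96-well plates, with a 48-hour exposure period. Abbreviation: GI50, concentration required for 50% inhibition of growth.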 The source made the active and inactive calls. Cut-off read from the data, not from the text of the source: active = GI50 up to about 1.1 µM and inactive = higher. A value given as a limit tells only on which side of the number the result lay.

With `C/C=C/CC(C(=O)OCC)(N(C)C(=O)OC(C)(C)C)S(=O)(=O)c1ccc(C)cc1` (stereo not given), the GI50 in [1] is > 100 µM (inactive); in test [2], > 100 µM (inactive); in test [3] it was 22.1 µM (inactive); in test [4], 85.9 µM (inactive); in [5], 61.9 µM (inactive); in [6] it was 70.6 µM (inactive). Besides, the GI50 in [7] was > 100 µM (inactive); in [8] it was > 100 µM (inactive); in [9] it was 71.8 µM (inactive); in [10], 88.7 µM (inactive); in [11] it was > 100 µM (inactive); in test [12], 25.7 µM (inactive). Moreover, the GI50 in test [13] is > 100 µM (inactive); in test [14] it was > 100 µM (inactive); in test [15], > 100 µM (inactive); in test [16], > 100 µM (inactive); in [17] it was 56.5 µM (inactive); in test [18], > 100 µM (inactive). Moreover, the GI50 in [19] was 61.9 µM.

With `[O-][N+]1(CC[N+]2([O-])CCCCC2)CCCCC1`, the GI50 in test [1], in test [2], in test [3], in test [4], in test [5] and in test [6] was > 100 µM (inactive) each time. The GI50 in [7], in test [8], in test [9], in test [10], in test [11] and in test [12] was > 100 µM (inactive) each time. Besides, the GI50 in test [13], in [14], in test [15], in test [16], in test [17] and in test [18] was > 100 µM (inactive) each time. Also, the GI50 in test [19] is above 100 µM.

For `Clc1cc(-c2ccccc2)nc(Nc2nc3ccccc3[nH]2)n1`, the GI50 in test [1] is 17.5 µM (inactive); in test [2], 23.6 µM (inactive); in test [3] it was 18.8 µM (inactive); in test [4] it was > 100 µM (inactive); in [5], 17.7 µM (inactive); in [6], 25.1 µM (inactive). For the same compound, the GI50 is 16.5 µM (inactive) in [7]; 18.2 µM (inactive) in [8]; 44.7 µM (inactive) in test [9]; 38.5 µM (inactive) in test [10]; 28.2 µM (inactive) in test [11]; 23.3 µM (inactive) in [12]. The GI50 was 22 µM (inactive) in [16], 6.01 µM (inactive) in [17], 22.9 µM (inactive) in test [18] and 6.95 µM in test [19].

On to `C#CCn1c(=O)ccn(/C(=C/C(=O)OCC)C(=O)OCC)c1=O`, for which the GI50 was 1.59 µM (inactive) in [1]; 13.1 µM (inactive) in test [2]; 17.2 µM (inactive) in test [3]; 17.2 µM (inactive) in test [4]; 14 µM (inactive) in [5]; 6.15 µM (inactive) in [6]. Also, the GI50 is 3.41 µM (inactive) in [7]; 11.9 µM (inactive) in test [8]; 14.2 µM (inactive) in [9]; 14.5 µM (inactive) in test [10]; 1.96 µM (inactive) in test [11]; 10.9 µM (inactive) in test [12]. Besides, the GI50 is 13 µM (inactive) in test [13]; 13.9 µM (inactive) in [14]; 6.35 µM (inactive) in test [15]; 2.2 µM (inactive) in [16]; 1.86 µM (inactive) in test [17]; 10.5 µM (inactive) in test [18]. In test [19], the GI50 is 1.06 µM.

As for `CC(=O)OCC(C)(COC(C)=O)N1C(=O)C2C3c4ccccc4C(c4ccccc43)C2C1=O` (stereo not given), the GI50 in [1] was > 100 µM (inactive); in [2] it was > 100 µM (inactive); in [3] it was 28.1 µM (inactive); in test [4], > 100 µM (inactive); in [5], > 100 µM (inactive); in test [6], 33 µM (inactive). Besides, the GI50 in [7], in test [8], in [9], in [10], in test [12] and in test [14] was > 100 µM (inactive) in each case. Further, the GI50 in [15] is > 100 µM (inactive); in test [16] it was > 100 µM (inactive); in test [17] it was > 100 µM (inactive); in test [18] it was > 100 µM (inactive); in test [19], above 100 µM.

Take `COc1cc(S(=O)(=O)Nc2ccc(-c3csc(/N=C\c4ccccc4)n3)cc2)ccc1Cl`: the GI50 in test [1] is > 100 µM (inactive); in [2] it was 32 µM (inactive); in test [3] it was 39 µM (inactive); in test [4], > 100 µM (inactive); in test [5], 29.9 µM (inactive); in test [6] it was 44.8 µM (inactive). For the same compound, the GI50 in test [7] was 81.3 µM (inactive); in [8], 60.7 µM (inactive); in [9], 48.2 µM (inactive); in test [10] it was 52.7 µM (inactive); in test [11] it was > 100 µM (inactive); in [12] it was 34.1 µM (inactive). The GI50 in test [13] is 41.4 µM (inactive); in [14] it was 43.9 µM (inactive); in test [15], 56.9 µM (inactive); in test [16] it was > 100 µM (inactive); in [17], 33.5 µM (inactive); in test [18] it was 41.4 µM (inactive). In test [19], the GI50 is above 100 µM.

For `O=C1CCC2(CC1)Cc1ccccc1C2O` (stereo not given), the GI50 in [1], in test [2], in test [3], in test [4], in test [5] and in [6] was > 100 µM (inactive) in each case. Moreover, the GI50 in [7], in test [8], in test [9], in test [10], in [11] and in [13] was > 100 µM (inactive) throughout. For the same compound, the GI50 is > 100 µM (inactive) in [14]; > 100 µM (inactive) in test [16]; > 100 µM (inactive) in [17]; > 100 µM (inactive) in [20]; > 100 µM (inactive) in [18]; above 100 µM in [19].

As for `Cc1ccc(/N=N/C(=N\c2ccc(Cl)cc2)c2ccc(N(CCC#N)CCC#N)cc2)cc1`, the GI50 in test [1] was 42 µM (inactive); in test [2], 48.1 µM (inactive); in test [3], 55.6 µM (inactive); in [4], 29.6 µM (inactive); in test [5] it was 11.8 µM (inactive); in test [6], 49 µM (inactive). In addition, the GI50 in test [7] was 52 µM (inactive); in test [8], 48.6 µM (inactive); in [9] it was 22.6 µM (inactive); in [10] it was 2.63 µM (inactive); in test [12] it was 19.1 µM (inactive); in [13], 58.3 µM (inactive). The GI50 was 33.4 µM (inactive) in test [15]; 63.8 µM (inactive) in test [16]; 58.9 µM (inactive) in test [17]; 18.8 µM (inactive) in [20]; 16.7 µM (inactive) in [18]; 14.2 µM in test [19].

On to `C(=C/c1ccc2nc(-c3ccc(/C=C/C=N/NC4=NCCCN4)cc3)cn2c1)/C=N/NC1=NCCCN1`, for which the GI50 was 46.7 µM (inactive) in test [1]; 12.2 µM (inactive) in test [2]; 43.9 µM (inactive) in test [3]; 10.3 µM (inactive) in test [4]; 30.1 µM (inactive) in [5]; 6.81 µM (inactive) in test [6]. For the same compound, the GI50 in [7] was 42.9 µM (inactive); in test [8] it was > 100 µM (inactive); in test [9], 20.3 µM (inactive); in [10] it was > 100 µM (inactive); in test [12], 26.1 µM (inactive); in test [13], > 100 µM (inactive). Further, the GI50 in [15] is > 100 µM (inactive); in [16], 17.6 µM (inactive); in test [20], 45.4 µM (inactive); in [18], > 100 µM (inactive); in test [19], above 100 µM.

`NS(=O)(=O)c1ccc(/N=N/c2cccnc2O)cc1`: the GI50 in test [1], in test [2], in test [3], in [4], in test [5] and in [6] was > 100 µM (inactive) throughout. Moreover, the GI50 in test [7], in test [8], in test [9], in [10], in test [11] and in test [12] was > 100 µM (inactive) throughout. The GI50 in [13], in test [14], in test [15], in test [16], in [17] and in [18] was > 100 µM (inactive) throughout. The GI50 in test [19] was above 100 µM.

In the case of `CCCCC(C(=O)N/N=C/c1ccc([N+](=O)[O-])o1)C(=O)N/N=C/c1ccc([N+](=O)[O-])o1`, the GI50 in test [1] was 1.82 µM (inactive); in test [2] it was 5.65 µM (inactive); in test [3], 3.53 µM (inactive); in [4] it was 17.7 µM (inactive); in test [5], 2.91 µM (inactive); in test [6], 1.36 µM (inactive). In addition, the GI50 is 2.11 µM (inactive) in test [7]; 2.02 µM (inactive) in test [8]; 2.81 µM (inactive) in test [9]; 3.37 µM (inactive) in [10]; 2.2 µM (inactive) in [11]; 5.7 µM (inactive) in test [12]. Besides, the GI50 was 13.1 µM (inactive) in test [13]; 1.84 µM (inactive) in [14]; 2.32 µM (inactive) in test [15]; 2.05 µM (inactive) in test [16]; 2.54 µM (inactive) in test [17]; 5.61 µM (inactive) in test [18]. The GI50 in test [19] was 2.26 µM.
